Reference: ChEMBL document CHEMBL1201862, “PubChem BioAssay data set” (2004)
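Following 48 hours of exposure in 96-well plates, responses at five concentrations were used to interpolate endpoints linearly. GI50 marks 50% less growth.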 Calls of active or inactive are those of the source. Cut-off read from the data, not from the text of the source: active = GI50 up to about 1.1 µM and inactive = higher.

Experiments:
Assay in all cases: inhibition of tumour cell growth, NCI panel, 48 h
786-0 = tested on: 786-0
A498 = tested on: A498
A549 = tested on: A549
ACHN = tested on: ACHN
BT-549 = tested on: BT-549
CAKI-1 = tested on: CAKI-1
CCRF-CEM = tested on: CCRF-CEM
COLO 205 = tested on: COLO 205
DU-145 = tested on: DU-145
EKVX = tested on: EKVX
HCC 2998 = tested on: HCC 2998
HCT-116 = tested on: HCT-116
HCT-15 = tested on: HCT-15
HL-60 = tested on: HL-60
HOP-62 = tested on: HOP-62
HT-29 = tested on: HT-29
Hs-578T = tested on: Hs-578T
IGROV-1 = tested on: IGROV-1
K562 = tested on: K562
KM12 = tested on: KM12
LOX IMVI = tested on: LOX IMVI
M14 = tested on: M14
MCF7 = tested on: MCF7
MDA-MB-231 = tested on: MDA-MB-231
MDA-MB-435 = tested on: MDA-MB-435
MDA-N = tested on: MDA-N
MOLT-4 = tested on: MOLT-4
Malme-3M = tested on: Malme-3M
NCI-H226 = tested on: NCI-H226
NCI-H23 = tested on: NCI-H23
NCI-H460 = tested on: NCI-H460
NCI-H522 = tested on: NCI-H522
NCI/ADR-RES = tested on: NCI/ADR-RES
OVCAR-3 = tested on: OVCAR-3
OVCAR-4 = tested on: OVCAR-4
OVCAR-5 = tested on: OVCAR-5
OVCAR-8 = tested on: OVCAR-8
PC-3 = tested on: PC-3
RPMI-8226 = tested on: RPMI-8226
RXF 393 = tested on: RXF 393
SF-268 = tested on: SF-268
SF-295 = tested on: SF-295
SF-539 = tested on: SF-539
SK-MEL-28 = tested on: SK-MEL-28
SK-MEL-2 = tested on: SK-MEL-2
SK-MEL-5 = tested on: SK-MEL-5
SK-OV-3 = tested on: SK-OV-3
SN12C = tested on: SN12C
SNB-19 = tested on: SNB-19
SW-620 = tested on: SW-620
T47D = tested on: T47D
TK-10 = tested on: TK-10
U-251 = tested on: U-251
UACC-257 = tested on: UACC-257
UACC-62 = tested on: UACC-62
UO-31 = tested on: UO-31

Q: `Cc1[nH]c2c(C)ccc(C)c2c1CC(=O)O` was tested. Which GI50 (786-0) did it give?
A: 43.9 µM (inactive)

Q: And the GI50 (A498)?
A: 57 µM (inactive)

Q: And the GI50 (A549)?
A: 42.3 µM (inactive)

Q: What about the GI50 (ACHN) of the same compound?
A: 59.4 µM (inactive)

Q: What about the GI50 (BT-549) of the same compound?
A: 54.6 µM (inactive)

Q: And the GI50 (CAKI-1)?
A: 43 µM (inactive)

Q: And the GI50 (CCRF-CEM)?
A: 20 µM (inactive)

Q: And the GI50 (COLO 205)?
A: 40 µM (inactive)

Q: What about the GI50 (DU-145) of the same compound?
A: > 100 µM (inactive)

Q: And the GI50 (EKVX)?
A: 39 µM (inactive)

Q: And the GI50 (HCC 2998)?
A: 29.6 µM (inactive)

Q: And the GI50 (HCT-116)?
A: 38.5 µM (inactive)

Q: And the GI50 (HCT-15)?
A: 53.5 µM

Q: What about the GI50 (HL-60) of the same compound?
A: 5.43 µM (inactive)

Q: And the GI50 (HOP-62)?
A: 81.5 µM (inactive)

Q: And the GI50 (HT-29)?
A: 43.3 µM (inactive)

Q: What about the GI50 (Hs-578T) of the same compound?
A: 25.2 µM (inactive)

Q: And the GI50 (IGROV-1)?
A: 17.6 µM (inactive)

Q: And the GI50 (K562)?
A: 34.4 µM (inactive)

Q: What about the GI50 (KM12) of the same compound?
A: 32.2 µM (inactive)

Q: And the GI50 (LOX IMVI)?
A: 36.5 µM (inactive)

Q: And the GI50 (M14)?
A: 41 µM (inactive)

Q: And the GI50 (MCF7)?
A: 36.6 µM (inactive)

Q: And the GI50 (MDA-MB-231)?
A: 13 µM (inactive)

Q: And the GI50 (MDA-MB-435)?
A: 42.3 µM (inactive)

Q: What about the GI50 (MDA-N) of the same compound?
A: 31.5 µM (inactive)

Q: What about the GI50 (MOLT-4) of the same compound?
A: 26.5 µM (inactive)

Q: What about the GI50 (Malme-3M) of the same compound?
A: 37.7 µM (inactive)

Q: What about the GI50 (NCI-H226) of the same compound?
A: 33.7 µM (inactive)

Q: What about the GI50 (NCI-H23) of the same compound?
A: 51.8 µM (inactive)

Q: What about the GI50 (NCI-H460) of the same compound?
A: 31 µM (inactive)

Q: What about the GI50 (NCI-H522) of the same compound?
A: 24.2 µM (inactive)

Q: And the GI50 (NCI/ADR-RES)?
A: 54.6 µM (inactive)

Q: And the GI50 (OVCAR-3)?
A: 31.3 µM (inactive)

Q: And the GI50 (OVCAR-4)?
A: 38.1 µM (inactive)

Q: What about the GI50 (OVCAR-5) of the same compound?
A: > 100 µM (inactive)

Q: And the GI50 (OVCAR-8)?
A: 32.5 µM (inactive)

Q: What about the GI50 (PC-3) of the same compound?
A: 22 µM (inactive)

Q: What about the GI50 (RPMI-8226) of the same compound?
A: 25.7 µM (inactive)

Q: And the GI50 (RXF 393)?
A: > 100 µM (inactive)

Q: And the GI50 (SF-268)?
A: 44.2 µM (inactive)

Q: And the GI50 (SF-295)?
A: 50.1 µM (inactive)

Q: And the GI50 (SF-539)?
A: 94.2 µM (inactive)

Q: What about the GI50 (SK-MEL-28) of the same compound?
A: 61.8 µM (inactive)

Q: What about the GI50 (SK-MEL-2) of the same compound?
A: 18.2 µM (inactive)

Q: What about the GI50 (SK-MEL-5) of the same compound?
A: 48.9 µM (inactive)

Q: What about the GI50 (SK-OV-3) of the same compound?
A: > 100 µM (inactive)

Q: And the GI50 (SN12C)?
A: 34.3 µM (inactive)

Q: What about the GI50 (SNB-19) of the same compound?
A: 92 µM (inactive)

Q: What about the GI50 (SW-620) of the same compound?
A: 42.9 µM (inactive)

Q: And the GI50 (T47D)?
A: 41.8 µM (inactive)

Q: And the GI50 (TK-10)?
A: 57 µM (inactive)

Q: And the GI50 (U-251)?
A: 35.9 µM (inactive)

Q: What about the GI50 (UACC-257) of the same compound?
A: 30.5 µM (inactive)

Q: What about the GI50 (UACC-62) of the same compound?
A: 43.1 µM (inactive)

Q: And the GI50 (UO-31)?
A: 37 µM (inactive)
